Results: US5608084A, “Lactones with antioxidising and hypolipidaemic activity useful in the therapy of the atherosclerosis” (priority 1994, dated 1997)
Like-named read-outs stand apart in the source and are kept apart here.

Experiments:
HepG2 = assay: Incorporation of 14C-acetate in the lipidic classes in HepG2 cells (hypolipidaemic activity); assay type: cell-based, human; details: for Incorporation of 14C-acetate: Cholesterol / Incorporation of 14C-acetate: Esters of Cholesterol / Incorporation of 14C-acetate: Fatty acids / Incorporation of 14C-acetate: Phospholipids / Incorporation of 14C-acetate: Triglycerides: per culture plate; for inhibition at 1 µM / inhibition at 10 µM: Homo sapiens, HepG2
Protocol: The hypolipidaemic activity of some lactones of general formula I has been evaluated in vitro by testing their influence on the synthesis of the cell lipids like cholesterol, fatty acids, triglycerides, phospholipids and esters of the cholesterol, described by Barnhard J. W. in Amer. J. Cardiol., 62, 52B-56B, (1988).
The synthesis of the lipids has been studied by incubating cells coming from a human hepatocarcinoma (HepG2-American Type Culture Collection) in presence of ^14 C-acetate (Amersham) and by measuring the incorporation of the radioactive precursor in the main lipidic classes by means of chromatographic separation on silica gel (Merck F254), according to the method described by Skipski V. P. et al. in Biochem. Biophys. Acta, 106, 386-396, (1965) and by means of scintillographic dosage with β-counter Beckman scintillator, according to the method reported by Gherardi E. and Calandra S. in Lipids, 15, 108-112, (1980).
The data reported in tables 4 and 5 refer to the incorporation of ^14 C-acetate in the various lipidic classes, expressed as radioactivity in count per minute (cpm) for culture plate, for some lactones, in comparison with the probucol and the gemfibrozil, used as positive controls and with the solvent ethanol, used as negative control.
The percents in brackets express the lowering of the ^14 C-acetate in the various lipidic classes referred to the control, i.e. to the physiological solution. […] The confluence cells have been exposed to the products tested for 24 hours; at the end of the incubation the monolayer has been solubilized and the optical density of the lysate at λ260 nm has been measured. The value of the absorbance is direct function of the amount of the macromolecules present and therefore indirectly of the number of the cells.

LDL = details: in vitro, LDL incubated with antioxidizer; cited from earlier work
men and women = details: considerable amounts of Vitamin E; cited from earlier work

Cc1ccc(C)c(OCCCC(C)(C)C(=O)O)c1 [Gemfibrozil, reference compound]
influence on the synthesis of the triglycerides (HepG2): remarkable activity
Incorporation of 14C-acetate: Cholesterol (HepG2; 1 μM): 20820 cpm
Incorporation of 14C-acetate: Esters of Cholesterol (HepG2; 1 μM): 968 cpm
Incorporation of 14C-acetate: Fatty acids (HepG2; 1 μM): 299 cpm
Incorporation of 14C-acetate: Phospholipids (HepG2; 1 μM): 132598 cpm
Incorporation of 14C-acetate: Triglycerides (HepG2; 1 μM): 84593 cpm
Incorporation of 14C-acetate: Cholesterol (HepG2; 10 μM): 25306 cpm
Incorporation of 14C-acetate: Esters of Cholesterol (HepG2; 10 μM): 1156 cpm
Incorporation of 14C-acetate: Fatty acids (HepG2; 10 μM): 376 cpm
Incorporation of 14C-acetate: Phospholipids (HepG2; 10 μM): 164252 cpm
Incorporation of 14C-acetate: Triglycerides (HepG2; 10 μM): 96533 cpm
inhibition at 1 µM (HepG2; 1 μM, read-out: Incorporation of 14C-acetate: Cholesterol, percent referred to physiological solution): 34%
inhibition at 1 µM (HepG2; 1 μM, read-out: Incorporation of 14C-acetate: Esters of Cholesterol, percent referred to physiological solution): 76%
inhibition at 1 µM (HepG2; 1 μM, read-out: Incorporation of 14C-acetate: Fatty acids, percent referred to physiological solution): 55%
inhibition at 1 µM (HepG2; 1 μM, read-out: Incorporation of 14C-acetate: Phospholipids, percent referred to physiological solution): 47%
inhibition at 1 µM (HepG2; 1 μM, read-out: Incorporation of 14C-acetate: Triglycerides, percent referred to physiological solution): 22%
inhibition at 10 µM (HepG2; 10 μM, read-out: Incorporation of 14C-acetate: Cholesterol, percent referred to physiological solution): 20%
inhibition at 10 µM (HepG2; 10 μM, read-out: Incorporation of 14C-acetate: Esters of Cholesterol, percent referred to physiological solution): 71%
inhibition at 10 µM (HepG2; 10 μM, read-out: Incorporation of 14C-acetate: Fatty acids, percent referred to physiological solution): 44%
inhibition at 10 µM (HepG2; 10 μM, read-out: Incorporation of 14C-acetate: Phospholipids, percent referred to physiological solution): 34%
inhibition at 10 µM (HepG2; 10 μM, read-out: Incorporation of 14C-acetate: Triglycerides, percent referred to physiological solution): 11%
activity as regards the synthesis of the esters of the cholesterol (HepG2; summary of Table 4): 70-75%

Vitamin E
atherogenic potentialities of the LDL (LDL): remarkably lowered
risk of vascular pathologies (men and women): lowering of the risk of vascular pathologies
